From patent US4393225A, “AI-77 Compounds and pharmaceutically acceptable salts thereof” (Asahi Kasei Kogyo Kabushiki Kaisha, priority 1979, dated 1983)

Tested on: ulcer
Experiment: Anti-ulcer test (restraint and water immersion ulcer in rats, i.p.)
Assay type: in vivo, Male Wistar rats
Settings: Rattus norvegicus, ip, read-out: % Inhibition of Ulcer
In short: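 Male Wistar rats (~150 g), fasted 24 h, dosed i.p. with compound in physiological saline; 1 h later restrained and immersed to xiphisternum in 21 °C water for 6 h. Stomachs examined microscopically, ulcers scored 0–3, and percent inhibition calculated.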

Row | Structure (SMILES) | inhibition in vivo at 50 mg/kg [%] | inhibition in vivo at 25 mg/kg [%]
1 | CCNC1CC(=O)OC1C(OC(C)=O)C(=O)NC(CC(C)C)C1Cc2cccc(OC(C)=O)c2C(=O)O1 (stereo not shown) [IIIa-20-1] | 56 | 
2 | CC(C)CC(NC(=O)C(O)C1OC(=O)CC1NC(=O)C1CC1)C1Cc2cccc(O)c2C(=O)O1 (stereo not shown) [IIIa-1-18] | 66 | 
3 | CC(C)CC(NC(=O)C(O)C(O)C(CC(N)=O)NC(=O)C(C)C)C1Cc2cccc(O)c2C(=O)O1 (stereo not shown) [VII-28-2] |  | 78
4 | CC(C)CC(NC(=O)C(OC(=O)C(Cl)(Cl)Cl)C1OC(=O)CC1N)C1Cc2cccc(OC(=O)C(Cl)(Cl)Cl)c2C(=O)O1 (stereo not shown) [IIIa-11-4] | 56 | 

Same assay, conditions: Rattus norvegicus, ip; 25 mg/kg i.p.; read-out: % Inhibition of Ulcer

Row | Structure (SMILES) | inhibition in vivo at 25 mg/kg [%]
5 | CCCCCc1ccc(CNC(=O)CC(N)C(O)C(O)C(=O)NC(CC(C)C)C2Cc3cccc(O)c3C(=O)O2)cc1 (stereo not shown) [VII-1-40] | 94
6 | CC(C)CC(NC(=O)C(O)C(O)C(N)CC(=O)NCc1ccccc1)C1Cc2cccc(O)c2C(=O)O1 (stereo not shown) [VII-1-10] | 94
7 | CCCCNC(=O)CC(NCCCC)C(O)C(O)C(=O)NC(CC(C)C)C1Cc2cccc(O)c2C(=O)O1 (stereo not shown) [VII-10-4] | 72
8 | CC(=O)Oc1cccc2c1C(=O)OC(C(CC(C)C)NC(=O)C(O)C(O)C(CC(N)=O)NCC(C)C)C2 (stereo not shown) [VII-13-2] | 83
9 | CNC(CC(N)=O)C(O)C(OC)C(=O)NC(CC(C)C)C1Cc2cccc(OC(C)=O)c2C(=O)O1 (stereo not shown) [VII-27-1] | 66
10 | COc1ccc(CNC(=O)CC(N)C(O)C(O)C(=O)NC(CC(C)C)C2Cc3cccc(O)c3C(=O)O2)cc1 (stereo not shown) [VII-1-24] | 83
11 | Cc1ccc(CNC(=O)CC(N)C(O)C(O)C(=O)NC(CC(C)C)C2Cc3cccc(O)c3C(=O)O2)cc1 (stereo not shown) [VII-1-22] | 83
12 | CCCCOC(C(=O)NC(CC(C)C)C1Cc2cccc(OC(C)=O)c2C(=O)O1)C(O)C(CC(N)=O)NCC (stereo not shown) [VII-18-1] | 66
13 | CC(C)CC(NC(=O)C(O)C(O)C(N)CC(=O)NCc1ccc2ccccc2c1)C1Cc2cccc(O)c2C(=O)O1 (stereo not shown) [VII-1-18] | 78

Same assay, conditions: Rattus norvegicus, ip; 50 mg/kg i.p.; read-out: % Inhibition of Ulcer

Row | Structure (SMILES) | inhibition in vivo at 50 mg/kg [%]
14 | CCOc1cccc2c1C(=O)OC(C(CC(C)C)NC(=O)C(O)C1OC(=O)CC1NC(C)=O)C2 (stereo not shown) [IIIa-5-1] | 44
15 | COC(C)CC(=O)Oc1cccc2c1C(=O)OC(C(CC(C)C)NC(=O)C(O)C1OC(=O)CC1N)C2 (stereo not shown) [IIIa-12-6] | 78
16 | CC(=O)Oc1cccc2c1C(=O)OC(C(CC(C)C)NC(=O)C(O)C1OC(=O)CC1NCC(C)C)C2 (stereo not shown) [IIIa-21-2] | 72
17 | CC(=O)N1CCC(COc2cccc3c2C(=O)OC(C(CC(C)C)NC(=O)C(O)C2C=CC(=O)O2)C3)CC1 (stereo not shown) [IVa-4-16] | 33
18 | CC(=O)NC1CC(=O)OC1C(OC(C)=O)C(=O)NC(CC(C)C)C1Cc2cccc(OCC(C)C)c2C(=O)O1 (stereo not shown) [IIIa-6-2] | 33
19 | CCCCCCCCCCCCCCCCCC(=O)Oc1cccc2c1C(=O)OC(C(CC(C)C)NC(=O)C(OC)C1OC(=O)CC1N)C2 (stereo not shown) [IIIa-17-2] | 44
20 | CCCCCCCCCCCC(=O)OC(C(=O)NC(CC(C)C)C1Cc2cccc(O)c2C(=O)O1)C1C=CC(=O)O1 (stereo not shown) [IVa-1-10] | 33
21 | CCNC1CC(=O)OC1C(OC)C(=O)NC(CC(C)C)C1Cc2cccc(O)c2C(=O)O1 (stereo not shown) [IIIa-25-9] | 66
22 | CCOc1cccc2c1C(=O)OC(C(CC(C)C)NC(=O)C(O)C1OC(=O)CC1NC(=O)C=Cc1ccoc1)C2 (stereo not shown) [IIIa-5-56] | 44
23 | CCOc1cccc2c1C(=O)OC(C(CC(C)C)NC(=O)C(OC(=O)C(Cl)(Cl)Cl)C1OC(=O)CC1NC(=O)C(Cl)(Cl)Cl)C2 (stereo not shown) [IIIa-6-1] | 33
24 | COC(C)CC(=O)Oc1cccc2c1C(=O)OC(C(CC(C)C)NC(=O)C(O)C1C=CC(=O)O1)C2 (stereo not shown) [IVa-3-17] | 33
25 | CC(C)CC(NC(=O)C(O)C1OC(=O)CC1NC(=O)CCCC1CCCCC1)C1Cc2cccc(O)c2C(=O)O1 (stereo not shown) [IIIa-1-19] | 66
26 | CC(C)CC(NC(=O)C(O)C1OC(=O)CC1NC(=O)CCCc1cccs1)C1Cc2cccc(O)c2C(=O)O1 (stereo not shown) [IIIa-1-26] | 66
27 | CC(C)CC(NC(=O)C(O)C1OC(=O)CC1NC(=O)Cc1ccccc1)C1Cc2cccc(O)c2C(=O)O1 (stereo not shown) [IIIa-1-20] | 66
28 | CC(=O)Oc1cccc2c1C(=O)OC(C(CC(C)C)NC(=N)C(OC(C)=O)C(O)C(CC(=O)O)NCc1ccc(C)cc1)C2 (stereo not shown) [Vb-12-3] | 44
29 | CCC(=O)OC(C(=O)NC(CC(C)C)C1Cc2cccc(OC)c2C(=O)O1)C1OC(=O)CC1NC(C)=O (stereo not shown) [IIIa-6-12] | 33
30 | CCCCCC(=O)OC(C)CC(=O)NC1CC(=O)OC1C(O)C(=O)NC(CC(C)C)C1Cc2cccc(O)c2C(=O)O1 (stereo not shown) [IIIa-1-49] | 56
31 | CCCC(=O)NC1CC(=O)OC1C(OC(C)C)C(=O)NC(CC(C)C)C1Cc2cccc(OCc3ccccc3)c2C(=O)O1 (stereo not shown) [IIIa-7-11] | 33
32 | CCCCCCCCCCCCCCCCCCNC1CC(=O)OC1C(O)C(=O)NC(CC(C)C)C1Cc2cccc(OCCCCC)c2C(=O)O1 (stereo not shown) [IIIa-22-6] | 72
33 | CC(C)=CCC/C(C)=C/CC/C(C)=C/CCC(=O)NC1CC(=O)OC1C(O)C(=O)NC(CC(C)C)C1Cc2cccc(O)c2C(=O)O1 (stereo not shown) [IIIa-1-67] | 66
34 | CCOc1cccc2c1C(=O)OC(C(CC(C)C)NC(=O)C(O)C1OC(=O)CC1NCC=C(C)C)C2 (stereo not shown) [IIIa-22-72] | 94
35 | CC(=O)NC1CC(=O)OC1C(OC(C)=O)C(=O)NC(CC(C)C)C1Cc2cccc(O)c2C(=O)O1 (stereo not shown) [IIIa-2-2] | 44
36 | CCC(=O)COc1cccc2c1C(=O)OC(C(CC(C)C)NC(=O)C(O)C1OC(=O)CC1N)C2 (stereo not shown) [IIIa-13-20] | 100
37 | CCCC=Cc1ccc(CN=C(NC(CC(C)C)C2Cc3cccc(O)c3C(=O)O2)C(O)C(O)C(N)CC(=O)O)cc1 (stereo not shown) [Vb-1-40] | 89
38 | CC(C)CC(NC(=O)C(O)C1OC(=O)CC1N)C1Cc2cccc(OCCCl)c2C(=O)O1 (stereo not shown) [IIIa-13-6] | 94
39 | CC(=O)OC(C)CC(=O)NC1CC(=O)OC1C(O)C(=O)NC(CC(C)C)C1Cc2cccc(O)c2C(=O)O1 (stereo not shown) [IIIa-1-48] | 66

Row | Structure (SMILES) | inhibition in vivo at 50 mg/kg [%]
40 | CCCCCCCCC=CCCCCCCCC(=O)Oc1cccc2c1C(=O)OC(C(CC(C)C)NC(=O)C(O)C1OC(=O)CC1N)C2 (stereo not shown) [IIIa-12-4] | 72
41 | CCCC(=O)OC(C(=O)NC(CC(C)C)C1Cc2cccc(O)c2C(=O)O1)C1C=CC(=O)O1 (stereo not shown) [IVa-1-3] | 44
42 | C#CC(=O)NC1CC(=O)OC1C(O)C(=O)NC(CC(C)C)C1Cc2cccc(O)c2C(=O)O1 (stereo not shown) [IIIa-1-52] | 66
43 | COc1ccc(C(=O)Oc2cccc3c2C(=O)OC(C(CC(C)C)NC(=O)C(O)C2C=CC(=O)O2)C3)cc1 (stereo not shown) [IVa-3-16] | 33
44 | CCOc1cccc2c1C(=O)OC(C(CC(C)C)NC(=O)C(O)C1OC(=O)CC1NC(=O)c1ccco1)C2 (stereo not shown) [IIIa-5-22] | 44
45 | COc1cccc2c1C(=O)OC(C(CC(C)C)NC(=O)C(O)C1OC(=O)CC1NCC(Cl)(Cl)Cl)C2 (stereo not shown) [IIIa-22-7] | 78
46 | CCOc1cccc2c1C(=O)OC(C(CC(C)C)NC(=O)C(O)C1OC(=O)CC1NCCSC)C2 (stereo not shown) [IIIa-22-39] | 94
47 | CCOc1cccc2c1C(=O)OC(C(CC(C)C)NC(=O)C(O)C1OC(=O)CC1NC(=O)CCCBr)C2 (stereo not shown) [IIIa-5-31] | 44
48 | CC(=O)Oc1ccc(C(=O)NC2CC(=O)OC2C(O)C(=O)NC(CC(C)C)C2Cc3cccc(O)c3C(=O)O2)cc1 (stereo not shown) [IIIa-1-34] | 66
49 | CCCCCCCCCCCCCCCCCCNC1CC(=O)OC1C(OC(C)=O)C(=O)NC(CC(C)C)C1Cc2cccc(OCC)c2C(=O)O1 (stereo not shown) [IIIa-23-3] | 44
50 | CCCC(=O)NC1CC(=O)OC1C(OC(=O)CCC)C(=O)NC(CC(C)C)C1Cc2cccc(OCc3ccco3)c2C(=O)O1 (stereo not shown) [IIIa-6-11] | 33
51 | CC(C)CC(NC(=O)C(O)C1C=CC(=O)O1)C1Cc2cccc(OC(=O)CCC3CCCC3)c2C(=O)O1 (stereo not shown) [IVa-3-15] | 33
52 | CC(C)=CCNC1CC(=O)OC1C(O)C(=O)NC(CC(C)C)C1Cc2cccc(O)c2C(=O)O1 (stereo not shown) [IIIa-18-70] | 94
53 | CCOc1cccc2c1C(=O)OC(C(CC(C)C)NC(=O)C(OC)C1OC(=O)CC1NC(=O)CC(C)OC)C2 (stereo not shown) [IIIa-7-7] | 33
54 | CC(C)CC(NC(=O)C(OC(=O)C(C)C)C1C=CC(=O)O1)C1Cc2cccc(O)c2C(=O)O1 (stereo not shown) [IVa-1-4] | 44
55 | CC(C)CC(NC(=O)C(O)C1OC(=O)CC1N)C1Cc2cccc(OCCC3CCCCO3)c2C(=O)O1 (stereo not shown) [IIIa-13-15] | 94
56 | CCCC(=O)Oc1cccc2c1C(=O)OC(C(CC(C)C)NC(=O)C(OCC)C1OC(=O)CC1N)C2 (stereo not shown) [IIIa-17-3] | 56
57 | CCOc1cccc2c1C(=O)OC(C(CC(C)C)NC(=O)C(O)C1OC(=O)CC1NC(=O)C1CC3C=CC1C3)C2 (stereo not shown) [IIIa-5-69] | 33
58 | CCCCCOC(=O)c1ccc(C(=O)NC2CC(=O)OC2C(O)C(=O)NC(CC(C)C)C2Cc3cccc(OCC)c3C(=O)O2)cc1 (stereo not shown) [IIIa-5-50] | 33
59 | CNC1CC(=O)OC1C(O)C(=O)NC(CC(C)C)C1Cc2cccc(OC)c2C(=O)O1 (stereo not shown) [IIIa-31-1] | 94
60 | CCCCCCCCCCCCCCCCCC(=O)NC1CC(=O)OC1C(O)C(=O)NC(CC(C)C)C1Cc2cccc(OCCCCCCC)c2C(=O)O1 (stereo not shown) [IIIa-5-6] | 33
61 | CCCCCCCC(=O)OC(C(=O)NC(CC(C)C)C1Cc2cccc(O)c2C(=O)O1)C1C=CC(=O)O1 (stereo not shown) [IVa-1-9] | 33
62 | CCCCCCCCOc1cccc2c1C(=O)OC(C(CC(C)C)NC(=O)C(O)C1OC(=O)CC1NCC)C2 (stereo not shown) [IIIa-22-11] | 83
63 | C/C=C/C(=O)OC(C(=N)NC(CC(C)C)C1Cc2cccc(O)c2C(=O)O1)C(O)C(N)CC(=O)O (stereo not shown) [Vb-2-3] | 66
64 | CC(=O)Oc1cccc2c1C(=O)OC(C(CC(C)C)NC(=O)C(OC(C)=O)C1OC(=O)CC1NC(=O)C1CCCO1)C2 (stereo not shown) [IIIa-3-6] | 33
